Assay results as given in US20130023491A1, “BETA-CELL REPLICATION PROMOTING COMPOUNDS AND METHODS OF THEIR USE” (President and Fellows of Harvard College, priority 2009, published 2013).
Entries after “also recorded” stand apart in the source; their conditions may differ. Where two headings read alike, the source gives them in different places.

Tests used:
[1] = test system: β-cells (dispersed rat islet cells); test: primary islet β-cell replication assay (PDX-1/ki-67 co-staining, automated imaging); assay type: cell-based; details: for EC50: Rattus norvegicus; for increase of β-cell replication: 24 h, 5-IT 2 μM, GLP-1 and Ex-4 20 nM and 4 nM, normalized to DMSO
Experimental: Rat islets were isolated as previously described in Gotoh M, Maki T, Kiyoizumi T, Satomi S, Monaco A P: An improved method for isolation of mouse pancreatic islets. Transplantation 40:437-438, 1985, contents of which are herein incorporated by reference in their entirety. Isolated islets were cultured overnight in a tissue culture incubator. The following morning, islets were trypsinized into cellular clusters of 1-3 cells, re-suspended in islet media (Mediatech 99-786-CV; 10% FBS serum (Valley Biomedial BS3033); 8.3 mM Glucose (Sigma G7528); 1× Penicillin/Streptomycin (Invitrogen 15070-063); 1× Glutamax (Invitrogen 35050-079)) and plated into the wells of a 96-well plate (Sigma CLS3904) that had been coated with 804G (a rat bladder carcinoma cell line) conditioned media. The cellular plating density was 60 k cells/well and greater than 95% viability was confirmed at the time of plating. […] For screening, compounds were tested at 1 uM concentration in duplicate. After 24-hours of compound treatment, cells were fixed with fresh 4% PFA (Electron Microscopy Services 15710) for 20 minutes and washed with PBS (VWR 45000-446). Antigen retrieval was performed by heating the cells to 90 degrees Celsius in 0.1 mM EDTA (Ambion AM9260G) in PBS. Cells were then washed and permeabalized with PBS/0.3% Triton X-100 (J.T.Baker X198-07) for 15 minutes. Immunocytochemical staining was then performed as follows. Antigen blocking was performed with 5% normal donkey serum (Jackson ImmunoResearch 017-000-121) in PBS for an hour. Staining was performed by overnight incubation with primary antibody at 4 degrees Celsius. For the primary screen, PDX-1 antibody (R&D AF2419) was used to reveal beta-cells and ki-67 antibody (BD Bioscience 556003) to visualize proliferating cells. Without wishing to be bound by theory, the failure of prior beta-cell replication screens is primarily a consequence of using a cytoplasmic marker (Insulin) as the β-cell identifier. The use of a cytoplasmic marker prevents accurate attribution of nuclear replication to a specific cell identity i.e., in dense culture it is impossible to attribute a cytoplasm to a specific nucleus given the proximity to multiple nuclei. Additional Immunohistochemistry antibodies included Phosphohistone 3 (Millipore 06-570), Insulin (Dako A0564), Glucagon (Millipore 4031-01F) and Vimentin (Millipore ab5733). For western blotting anti-bodies included ADK (Abcam ab38010, ab64825) and RAN (BD Bioscience 610340) as a loading control.
Once compound-treated islet cells were stained, β-cell replication was assessed via automated image acquisition and analysis using a Cellomics ArrayScanVTI. The acquisition thresholds/parameters were established such that the computer-based calls of replication events were consistent with human-based calls. The parameters used were directed at the identification of (1) PDX-1+ cells and (2) ki-67 positive staining within the PDX-1 positive area. The algorithm was a three step process. First the nuclear area was predicted by the software based upon the expected PDX-1 staining pattern. Second PDX-1 positive cells (selected objects) were counted based upon the average staining intensity within the predicted nuclear area (Note: total signal intensity was essentially equal in quality but was not typically used). Third, the number of PDX-1 positive cells (selected objects) that simultaneously were Ki-67 positive was determined by determining the average fluorescence intensity of ki-67 staining within the predicted nuclear area (again, total intensity was also occasionally used with equal efficacy). The specific thresholds (fluorescence intensities) varied from experiment to experiment. In general, the basal replication rate was set at roughly 1% i.e., the algorithm was varied until 1% of DMSO treated PDX+ cells were reported to be double positive for PDX-1 and ki67. […]

exocrine cells = test: in vivo exocrine cell replication (BRDU incorporation); design: species or system mouse; details: mice, 21 mg/kg, 24 h
Excerpt: (§1) A minority of these cells were not exocrine cells. […] Dividing cells were BRDU^+ (Amaersham RPN202).

islet β-cells = test: in vivo β-cell replication (BRDU incorporation); design: species or system mouse; details: mice
Excerpt: 24-hours post treatment, animals were sacrificed and the pancreas was fixed, sectioned and stained for PDX-1 and BRDU (Amaersham RPN202). Every fourth section was included in analysis and a minimum of 2000 PDX-1^+ per animal were counted.
as §1

murine β-cells = test: murine islet β-cell replication (PDX-1/ki-67); assay type: cell-based, mouse; details: FIG. 13b top
Experimental: (§2) Rat and mouse islets were isolated as previously described. (M. Gotoh, et al., Transplantation 43, 725-730 (1987)) All animal work was approved and carried out in accordance with our institutional animal care and use committee. Porcine islets were provided by VitaCyte (Indianapolis, Id.). Islets were incubated (37° C., 5% CO2) overnight in islet media (Mediatech 99-786-CV; 10% FBS serum (Valley Biomedial BS3033); 8.3 mM Glucose (Sigma G7528); 1× Penicillin/Streptomycin (Invitrogen 15070-063); 1× Glutamax (Invitrogen 35050-079)). The following morning, islets were trypsinized into cellular clusters of 1-3 cells, re-suspended in islet media and plated into the wells of a 96-well plate (Sigma CLS3904) that had been coated with 804G (a rat bladder carcinoma cell line) conditioned media. The cellular plating density was 60 k cells/well and greater than 95% viability was confirmed at the time of plating. The islet cells were allowed 48-hours to adhere at which time the media was changed (as above, except 2% serum, 5 mM glucose) and the cells were compound treated. For screening, compounds were tested at 1 μM and 10 μM concentrations in duplicate on a single occasion. After 24-hours of compound treatment, cells were fixed with fresh 4% PFA. Antigen retrieval was performed by heating the cells to 90 degrees Celsius in 0.1 M EDTA in distilled water. […]

[2] = compared to 5-IT; Zheng et al. 2001; cited from earlier work
porcine β-cells = test: porcine islet β-cell replication (PDX-1/ki-67); assay type: cell-based; details: FIG. 13b bottom
Experimental: as §2

Nc1ncnc2c1c(I)cn2[C@H]1CC[C@@H](CO)O1 [7-Iodo-2,3-dideoxy-7-deazadenosine, 7-deaza-7-iodo-2′,3′-dideoxyadenosine]
β-cell replication after treatment with additional ADK-Is ([1]; FIG. 17b, 7-Iodo-2,3-dideoxy-7-deazadenosine 20 μM, 10 μM, Aristeromycin 6 μM, 1 μM): increased

Nc1ncnc2nc(-c3ccc(N4CCOCC4)nc3)cc(-c3cccc(Br)c3)c12 [ABT-702, 5-(3-bromophenyl)-7-(6-morpholinopyridin-3-yl)pyrido[2,3-d]pyrimidin-4-amine]
in vivo replication rate of exocrine cells (exocrine cells): did not increase
in vivo β-cell replication rate, β-cells identified by insulin immunostaining (islet β-cells; separate cohort, FIG. 20): increases
increase in BRDU incorporation by β-cells in vivo (PDX-1 identified) (islet β-cells; single intraperitoneal injection, 21 mg/kg, 24 h): 2 fold
induction of β-cell replication, murine islet cells (murine β-cells): induction of β-cell replication similar to that observed for rat islet cells
% of Ki-67 positive β-cells (PDX-1 and Ki-67 positive cells), dose curve ([1]; A10 0.019-10 uM, B8 0.23-30 uM): increased in a dose dependent manner
EC50 ([1]; FIG. 13c dose-response curves, read-out: EC50, β-cell proliferation in rat islet cultures): 7 µM
EC50 ([1]; dose curves FIG. 2a (A10) and FIG. 3 (B8), Ki-67 positive β-cells, read-out: EC50 for β-cell proliferation): 9.1 µM
half-life [2]: longer half-life compared to 5-IT
induction of β-cell replication, porcine islet cells (porcine β-cells): induction of β-cell replication similar to that observed for rat islet cells

NC(=O)c1ncn([C@@H]2O[C@H](CO)[C@@H](O)[C@H]2O)c1N [AICAR, 5-aminoimidazole-4-carboxamide ribonucleoside]
% β-cell replication ([1]; AICAR 3.3 μM): increase

c1cc(-c2cnn3cc(-c4ccc(OCCN5CCCCC5)cc4)cnc23)ccn1 [Cpd C]
beta-cell replication with A10 relative to the uninhibited controls ([1]; Cpd C 10 μM): decrease

Nc1ncnc2c1ncn2[C@@H]1O[C@H](CO)[C@@H](O)[C@H]1O [adenosine]
effect on % PDX-1 and Ki-67 expressing cells (β-cell proliferation) ([1]; rat islets, adenosine 0.05-1000 uM): little effect; also recorded: no effect

Exendin-4 [Ex-4]
increase of β-cell replication [1]: ~1.5 fold

Glucagon-like peptide-1 [GLP-1]
increase of β-cell replication [1]: ~1.5 fold
